The text below walks through data of paper PMC6120233, “Importance of Val567 on heme environment and substrate recognition of neuronal nitric oxide synthase” (FEBS Open Bio, 2018).

Assay [1] deals with T1, WT nNOSoxy (oxygenase domain of rat neuronal nitric oxide synthase) (Rattus norvegicus, UniProt P29476, V567F).
T1 construct: gene Nos1; oxygenase domain, aa 1-720 plus 6-histidine tag, plasmid pCWnNOSoxy, E. coli BL21(DE3), HisTrap purification
Briefly: biochemical. Set-up: UV-visible perturbation difference spectroscopy; displacement of heme-bound imidazole (0.5 mM), apparent dissociation constant. To be noted: read-out: Val567Phe. On the procedure: (§1) The native enzymes (~1–2 μM) were incubated 5 min at 4 °C in 50 mM HEPES buffer pH 7.4 in the presence of 0.5 mM ImH and then equally divided into reference and sample cuvettes. After 2 min at room temperature, increasing concentrations of the studied compounds were added to the sample cuvette and equivalent amounts of buffer were added to the reference cuvette. Apparent dissociation constants (K s,app) were estimated by plotting the difference in absorbance between peak (~395 nm) and valley (~430 nm) as a function of added substrate or substrate analogue concentrations and fitting the data to a hyperbolic one‐site binding model by Origin (OriginLab Corp., Northampton, MA, USA). […] Effective K s values can be deduced from the K s,app and the K s values for ImH, assuming simple competitive binding equilibrium 37.

For assay [2], the target named is T2, WT nNOSoxy (oxygenase domain of rat neuronal nitric oxide synthase) (Rattus norvegicus, UniProt P29476, V567S).
T2 construct: gene Nos1; oxygenase domain, aa 1-720 plus 6-histidine tag, plasmid pCWnNOSoxy, E. coli BL21(DE3), HisTrap purification
Briefly: biochemical. Details: UV-visible perturbation difference spectroscopy; displacement of heme-bound imidazole (0.5 mM), apparent dissociation constant. To be noted: read-out: Val567Ser. On the procedure:
as §1

For assay [3], the target named is T3, WT nNOSoxy (oxygenase domain of rat neuronal nitric oxide synthase) (Rattus norvegicus, UniProt P29476, V567T).
T3 construct: gene Nos1; oxygenase domain, aa 1-720 plus 6-histidine tag, plasmid pCWnNOSoxy, E. coli BL21(DE3), HisTrap purification
Briefly: biochemical. Details: UV-visible perturbation difference spectroscopy; displacement of heme-bound imidazole (0.5 mM), apparent dissociation constant. To be noted: read-out: Val567Thr. On the procedure:
as §1

Assay [4] concerns the target T4, WT nNOSoxy (oxygenase domain of rat neuronal nitric oxide synthase) (Rattus norvegicus, UniProt P29476, V567Y).
T4 construct: gene Nos1; oxygenase domain, aa 1-720 plus 6-histidine tag, plasmid pCWnNOSoxy, E. coli BL21(DE3), HisTrap purification
Briefly: biochemical. Set-up: UV-visible perturbation difference spectroscopy; displacement of heme-bound imidazole (0.5 mM), apparent dissociation constant. To be noted: read-out: Val567Tyr. The procedure:
as §1

In assay [5] the target is T5, WT nNOSoxy (oxygenase domain of rat neuronal nitric oxide synthase) (Rattus norvegicus, UniProt P29476, V567R).
T5 construct: gene Nos1; oxygenase domain, aa 1-720 plus 6-histidine tag, plasmid pCWnNOSoxy, E. coli BL21(DE3), HisTrap purification
Briefly: biochemical. Details: UV-visible perturbation difference spectroscopy; displacement of heme-bound imidazole (0.5 mM), apparent dissociation constant. To be noted: read-out: Val567Arg. The procedure: as §1

Assay [6] deals with T4, WT nNOSoxy (oxygenase domain of rat neuronal nitric oxide synthase). Briefly: UV-visible difference spectroscopy, heme-Fe(III)-imidazole complex formation. To be noted: read-out: Val567Tyr. The assay is classed as binding. An excerpt: (§2) UV-visible difference spectroscopy, heme-Fe(III)-imidazole complex formation on WT nNOSoxy (oxygenase domain of rat neuronal nitric oxide synthase)

Assay [7] has as its target T5, WT nNOSoxy (oxygenase domain of rat neuronal nitric oxide synthase). Described as above. The assay is classed as binding. To be noted: read-out: Val567Arg.
Description: as §2

The target in assay [8] is T6, WT nNOSoxy (oxygenase domain of rat neuronal nitric oxide synthase) (Rattus norvegicus, UniProt P29476).
T6 construct: gene Nos1; oxygenase domain, aa 1-720 plus 6-histidine tag, plasmid pCWnNOSoxy, E. coli BL21(DE3), HisTrap purification
The description is as above. It counts as binding.
Description: as §2

Assay [9] has as its target T1, WT nNOSoxy (oxygenase domain of rat neuronal nitric oxide synthase). Described as above. To be noted: read-out: Val567Phe. It counts as binding.
Description: as §2

For assay [10], the target named is T2, WT nNOSoxy (oxygenase domain of rat neuronal nitric oxide synthase). Described as above. The assay is classed as binding. To be noted: read-out: Val567Ser.
Description: as §2

Assay [11] has as its target T3, WT nNOSoxy (oxygenase domain of rat neuronal nitric oxide synthase). The assay is described as above. The assay is classed as binding. To be noted: read-out: Val567Thr.

SMILES strings stand for the structures.

T3 sequence (P29476 1-720 V567T): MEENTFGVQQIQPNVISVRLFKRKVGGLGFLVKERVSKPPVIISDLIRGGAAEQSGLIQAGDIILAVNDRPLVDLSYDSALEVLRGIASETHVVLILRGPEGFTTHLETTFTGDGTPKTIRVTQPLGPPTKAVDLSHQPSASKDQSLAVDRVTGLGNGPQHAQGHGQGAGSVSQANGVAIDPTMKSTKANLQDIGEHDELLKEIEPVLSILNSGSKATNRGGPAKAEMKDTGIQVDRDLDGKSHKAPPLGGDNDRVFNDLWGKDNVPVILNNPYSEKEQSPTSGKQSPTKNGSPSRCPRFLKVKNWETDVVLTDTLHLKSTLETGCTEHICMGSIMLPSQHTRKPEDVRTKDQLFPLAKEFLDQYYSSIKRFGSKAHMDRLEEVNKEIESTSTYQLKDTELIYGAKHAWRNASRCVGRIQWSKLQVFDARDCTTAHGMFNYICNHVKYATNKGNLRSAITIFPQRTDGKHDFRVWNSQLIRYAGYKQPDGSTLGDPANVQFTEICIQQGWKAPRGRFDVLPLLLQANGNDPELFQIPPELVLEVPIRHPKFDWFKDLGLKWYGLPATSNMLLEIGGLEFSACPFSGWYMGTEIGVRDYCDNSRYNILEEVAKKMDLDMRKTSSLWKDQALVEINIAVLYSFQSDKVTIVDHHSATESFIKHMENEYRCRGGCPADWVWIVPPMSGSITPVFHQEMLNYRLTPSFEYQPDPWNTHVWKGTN
T4 sequence (P29476 1-720 V567Y): as the sequence (P29476 1-720 V567T) above, with T567Y counted along it
T5 sequence (P29476 1-720 V567R): as the sequence (P29476 1-720 V567T) above, with T567R counted along it
T1 sequence (P29476 1-720 V567F): as the sequence (P29476 1-720 V567T) above, with T567F counted along it
T2 sequence (P29476 1-720 V567S): as the sequence (P29476 1-720 V567T) above, with T567S counted along it
T6 sequence (P29476 1-720): as the sequence (P29476 1-720 V567T) above, with T567V counted along it

`N=C(N)Nc1ccc(F)cc1` [compound 11, 4-fluorophenyl-guanidine]: the Kd amounted to 165 ± 87 µM in assay [1] and 2.2 ± 0.4 µM in assay [2].

In the case of `COc1ccc(NC(=N)N)cc1` [compound 12, 4-methoxyphenyl-guanidine], the Kd turned out to be 189 ± 63 µM in [3] and 7.8 ± 1.2 µM in [2].

For the molecule `CC(C)NC(=N)N` [compound 9, Isopropyl-guanidine], the Kd in assay [4] was 147 ± 43 µM; in assay [5] it was above 500 µM; in [3] it was 99 ± 19 µM; in assay [1], 293 ± 34 µM; in [2], 34.2 ± 4.2 µM.

Take `CCCNC(=N)N` [compound 5, n-Propyl-guanidine]: the Kd in assay [4] was 295 ± 16 µM; in [3] it was 267 ± 63 µM; in [2], 122 ± 8 µM.

Turning to `CCCCNC(=N)N` [compound 6, n-Butyl-guanidine], the Kd in assay [3] stood at 23 ± 5.6 µM; in assay [2], 322 ± 31 µM.

Consider `c1c[nH]cn1` [imidazole], for which the Kd turned out to be 11.1 ± 3 µM in assay [6]; 262 ± 77 µM in assay [7]; 76.3 ± 5.4 µM in assay [8]; 152 ± 26 µM in [9]; 140 ± 16 µM in assay [10]; 93 ± 24.7 µM in assay [11].

With `N=C(N)NC1CC1` [compound 8, Cyclopropyl-guanidine], the Kd in assay [4] came to 24.3 ± 1.4 µM; in [5], 237 ± 85 µM; in assay [3], 20.2 ± 3.9 µM; in assay [2], 21.6 ± 3.9 µM.
